Data published in patent publication US8809278B2, “Cyclic tetrapeptides” (University of Kansas, priority 2008, dated 2014).
Entries after “also recorded” stand apart in the source; their conditions may differ. Read-outs that look alike come from different tables or passages of the source. Where a SMILES comes first, the peptide text is derived from it.

How the values were obtained:
κ opioid receptors (KOR) = assay type: binding; conditions: for Ki: [3H]diprenorphine
Protocol: (§1) Opioid receptor affinities were determined for the cyclic tetrapeptides using Chinese hamster ovary cells stably expressing κ, μ and δ opioid receptors, and their efficacies at κ opioid receptors were determined in the adenylyl cyclase assay as previously described (Arttamangkul, et al., J. Med. Chem. 1997, 40, 1211-1218; Soderstrom, et al., Eur. J. Pharmacol. 1997, 338, 191-197). [^3H]Diprenorphine, [^3H][D-Ala^2,NMePhe^4,glyol]enkephalin and [^3H]cyclo[D-Pen^2,D-Pen^5]enkephalin were used as the radioligands in the binding assays for κ, μ and δ opioid receptors, respectively. In the adenylyl cyclase assay, the efficacies were determined by measuring the inhibition of adenylyl cyclase by 10 μM of the peptides relative to dynorphin A-(1-13) amide (100%).
(§2) The study was done using [^3H]diprenorphine, [^3][D-Ala^2,NMePhe^4,glyol]enkephalin and [^3H]cyclo[D-Pen^2,D-Pen^5]enkephalin binding to CHO membranes expressing KOR, MOR and DOR, respectively.

δ opioid receptors (DOR) = biological target: T1, δ opioid receptors (DOR) (Mus musculus, UniProt P32300); test: Radioligand binding, δ opioid receptor, CHO cells ([3H]cyclo[D-Pen2,D-Pen5]enkephalin)
T1 construct: expressed in transfected cells
T1 sequence (P32300 whole entry): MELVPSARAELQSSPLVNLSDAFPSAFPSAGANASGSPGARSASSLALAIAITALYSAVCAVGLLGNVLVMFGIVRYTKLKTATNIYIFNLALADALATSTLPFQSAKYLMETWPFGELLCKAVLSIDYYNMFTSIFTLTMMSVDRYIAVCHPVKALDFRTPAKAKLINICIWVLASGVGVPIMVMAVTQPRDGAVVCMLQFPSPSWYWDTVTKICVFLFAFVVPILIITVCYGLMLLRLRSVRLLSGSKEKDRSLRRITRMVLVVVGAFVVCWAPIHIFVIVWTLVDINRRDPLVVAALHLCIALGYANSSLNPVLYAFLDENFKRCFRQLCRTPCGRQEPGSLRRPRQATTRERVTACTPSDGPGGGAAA
Protocol: as §1, §2

μ opioid receptors (MOR) = biological target: T2, μ opioid receptors (MOR) (Rattus norvegicus, UniProt P33535); test: Radioligand binding, μ opioid receptor, CHO cells ([3H][D-Ala2,NMePhe4,glyol]enkephalin)
T2 construct: expressed in transfected cells
T2 sequence (P33535 whole entry): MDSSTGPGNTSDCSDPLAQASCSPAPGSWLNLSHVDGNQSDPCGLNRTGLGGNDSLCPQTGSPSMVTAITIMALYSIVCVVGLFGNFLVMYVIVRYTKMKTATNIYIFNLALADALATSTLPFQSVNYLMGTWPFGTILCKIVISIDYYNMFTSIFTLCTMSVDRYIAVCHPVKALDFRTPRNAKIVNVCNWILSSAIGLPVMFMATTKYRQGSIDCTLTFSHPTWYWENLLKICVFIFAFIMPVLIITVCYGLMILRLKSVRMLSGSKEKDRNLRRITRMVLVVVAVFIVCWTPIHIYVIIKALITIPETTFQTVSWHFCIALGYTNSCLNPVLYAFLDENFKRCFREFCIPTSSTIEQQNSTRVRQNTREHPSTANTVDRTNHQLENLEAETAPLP
Protocol: as §1, §2

KOR = biological target: T3, KOR (Mus musculus, UniProt P33534); test: 55° C. warm-water tail-withdrawal assay, antagonism of the KOR selective agonist U50,488; assay type: in vivo; conditions: for duration of KOR antagonist activity: mice, tail-withdrawal assay; for antagonism of the KOR selective agonist U50,488: tested 2-2.5 hours after peptide administration, i.c.v.
T3 construct: from tissue; host or cells: living C57Bl/6J mice (in vivo)
T3 sequence (P33534 whole entry): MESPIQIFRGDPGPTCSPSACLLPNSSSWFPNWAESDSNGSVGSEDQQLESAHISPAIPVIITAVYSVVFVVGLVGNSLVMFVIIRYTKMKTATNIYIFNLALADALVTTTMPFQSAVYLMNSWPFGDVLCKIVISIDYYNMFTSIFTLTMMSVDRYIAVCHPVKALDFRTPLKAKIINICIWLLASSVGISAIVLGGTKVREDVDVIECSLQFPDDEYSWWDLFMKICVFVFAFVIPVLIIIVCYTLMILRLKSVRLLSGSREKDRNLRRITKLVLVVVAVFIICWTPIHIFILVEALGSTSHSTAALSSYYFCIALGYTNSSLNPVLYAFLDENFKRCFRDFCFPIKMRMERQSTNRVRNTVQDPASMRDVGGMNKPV
Protocol: (§3) An antinociceptive (analgesic) assay was performed to test the KOR agonist activity of cyclic tetrapeptides cyclo[Trp-Phe-D-Pro-Phe] […] After determining baseline tail-withdrawal latencies, mice received a single intracerebroventricular (i.c.v.) dose of vehicle (artificial cerebrospinal fluid, 146 mM NaCl, 2.7 mM KCl, 1.2 mM, CaCl2, 1.0 mM MgCl2) or a dose of test compound i.c.v. and the tail-withdrawal latency was again measured. For i.c.v. injections, each mouse was lightly anesthetized with isoflurane, an incision was made in the scalp, and the injection was made 2 mm lateral and 2 mm caudal to bregma at a depth of 3 mm directly into the lateral ventricle, as detailed previously (McLaughlin et al., 1999). The volume of these injections was 5 μl, using a 10-μl Hamilton microliter syringe. Reference agonists and antagonists were administered either subcutaneously (s.c.) or interperitoneally (i.p.) in 0.9% saline at the doses and times indicated in the figure legends (negative numbers indicate time prior to tail-withdrawal assay).
The ability of the cyclic tetrapeptides to function as KOR antagonists were studied by assessing the ability to antagonize the KOR selective agonist U50,488. […] Briefly, the antagonistic activity was tested 2-2.5 hours after peptide administration.
The duration of KOR antagonism of the cyclic tetrapeptides was studied.

C57B1/6J mice [1] = test: 55° C. warm-water tail-withdrawal assay, agonist (antinociceptive) activity; assay type: in vivo, mouse; conditions: for agonist activity in the 55° C. warm water tail withdrawal assay: i.c.v. administration; for pattern of opioid activity in vivo: tail-withdrawal assay
Protocol: as §3

κ opioid receptors = biological target: T4, κ opioid receptors (Rattus norvegicus, UniProt P34975); test: Adenylyl cyclase assay (efficacy at κ opioid receptors); assay type: cell-based; conditions: 10 μM peptide; relative to dynorphin A-(1-13) amide (100%)
T4 construct: expressed in transfected cells
T4 sequence (P34975 whole entry): as the sequence (P33534 whole entry) above, with D11E, S17A, S51P, A308V counted along it
Protocol: as §1

KOR in mouse brain = biological target: T5, KOR in mouse brain (Mus musculus, UniProt P33534); test: Affinity for KOR in mouse brain; assay type: binding
T5 construct: from tissue; host or cells: mouse brain
T5 sequence (P33534 whole entry): as the sequence (P33534 whole entry) above

C57B1/6J mice [2] = test: Stress-induced reinstatement of cocaine conditioned place preference; assay type: in vivo, mouse; conditions: 3 nmol i.c.v. 40 minutes prior to forced swim stress
Protocol: The establishment of cocaine conditioned place preference (CPP), extinction and stress-induced reinstatement of cocaine CPP were preformed in C57B1/6J mice as previously described (Carey, A. N.; Borozny, K.; Aldrich, J. V.; McLaughlin, J. P. Reinstatement of cocaine place-conditioning prevented by the peptide kappa-opioid receptor antagonist arodyn. Eur. J. Pharmacol. 2007, 569, 84-89). […] Place conditioning subsequently began immediately following cocaine administration (10 mg/kg s.c), whereupon mice were consistently confined for 30 min in the appropriate compartment in the CPP apparatus. Conditioning with assay vehicle (0.9% saline) followed 4 hours later in a similar manner, but paired to the opposite chamber. This conditioning cycle was repeated once on each of four days. On the fifth day, mice were again allowed to freely move through the apparatus. […]
One group of animals was then subjected to a 2-day forced swim stress protocol (with a single long swim (15 minutes) on day 1, and a series of four 6-minutes trials on day 2) to produce reinstatement of cocaine CPP. […] One hour after the final exposure to forced swim stress, the place preference responses of the mice were determined as described above to determine possible reinstatement of cocaine CPP (FIG. 6, middle panel). […]

DOR = biological target: T6, DOR (Mus musculus, UniProt P32300); test: 55° C. warm-water tail-withdrawal assay, antagonism of the DOR selective agonist SNC-80; assay type: in vivo; conditions: mice
T6 construct: from tissue; host or cells: living C57Bl/6J mice (in vivo)
T6 sequence (P32300 whole entry): as the sequence (P32300 whole entry) above
Protocol: as §3
(§4) The ability of JVA-2802 to selectively antagonize an opioid receptor was studied. Briefly, the antagonistic activity of JVA-2802 was studied for MOR, DOR, and KOR activity by the ability to antagonize the MOR selective agonist morphine, the DOR selective agonist SNC-80, and the KOR selective agonist U50,488.

MOR = biological target: T7, MOR (Mus musculus, UniProt P42866); test: 55° C. warm-water tail-withdrawal assay, antagonism of the MOR selective agonist morphine; assay type: in vivo; conditions: mice
T7 construct: from tissue; host or cells: living C57Bl/6J mice (in vivo)
T7 sequence (P42866 whole entry): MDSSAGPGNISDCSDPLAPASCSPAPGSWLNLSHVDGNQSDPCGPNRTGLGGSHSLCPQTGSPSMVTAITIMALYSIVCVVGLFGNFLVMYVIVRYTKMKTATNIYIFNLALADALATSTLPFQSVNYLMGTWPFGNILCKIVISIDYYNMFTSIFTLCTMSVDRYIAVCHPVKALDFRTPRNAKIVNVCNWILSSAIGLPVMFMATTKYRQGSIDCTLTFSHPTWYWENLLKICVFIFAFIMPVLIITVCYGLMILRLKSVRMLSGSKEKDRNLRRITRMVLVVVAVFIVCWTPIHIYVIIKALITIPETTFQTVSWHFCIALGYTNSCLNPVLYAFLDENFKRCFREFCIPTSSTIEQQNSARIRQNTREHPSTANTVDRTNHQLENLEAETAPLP
Protocol: as §3, §4

[3] = system: kappa-opioid receptor (KOR); conditions: literature reports; cited from earlier work
[4] = CHO membranes expressing KOR, read-out: KOR Ki
[5] = CHO membranes expressing DOR, read-out: DOR Ki
[6] = CHO membranes expressing MOR, read-out: MOR Ki
[7] = CHO cells stably expressing κ receptors, (n) in brackets, read-out: Ki (nM ± SEM) κ
[8] = CHO cells stably expressing δ receptors, (n) in brackets, read-out: Ki (nM ± SEM) δ
[9] = CHO cells stably expressing μ receptors, (n) in brackets, read-out: Ki (nM ± SEM) μ

SMILES	Ki (κ opioid receptors (KOR); [4]) [nM]	Ki (δ opioid receptors (DOR); [5]) [nM]	Ki (μ opioid receptors (MOR); [6]) [nM]	duration of KOR antagonist activity (KOR)	antagonism of the KOR selective agonist U50,488 (KOR)	Ki (κ opioid receptors (KOR); [7]) [nM]	agonist activity in the 55° C. warm water tail withdrawal assay (C57B1/6J mice [1])	Ki (δ opioid receptors (DOR); [8]) [nM]	Cyclase screen (% control) (κ opioid receptors) [%]	Ki (μ opioid receptors (MOR); [9]) [nM]	further results
C[C@@H]1C(=O)N[C@@H](Cc2ccccc2)C(=O)N[C@H](Cc2c[nH]c3ccccc23)C(=O)N[C@@H](Cc2ccccc2)C(=O)N1C [JVA 3001] (HELM PEPTIDE1{F.[C[C@H](C(=O)[*:2])N(C)[*:1]].F.[dW]}$PEPTIDE1,PEPTIDE1,1:R1-4:R2$$$V2.0)	68.9	5690	58.1	–	–	–	–	–	–	–	–
C[C@@H]1NC(=O)[C@H]2CCCN2C(=O)[C@H](Cc2ccccc2)NC(=O)[C@@H](Cc2c[nH]c3ccccc23)NC1=O [JVA 3004] (HELM PEPTIDE1{A.[dW].F.[dP]}$PEPTIDE1,PEPTIDE1,1:R1-4:R2$$$V2.0)	169	18000	186	–	–	–	–	–	–	–	–
C[C@@H]1NC(=O)[C@H](Cc2c[nH]c3ccccc23)NC(=O)[C@H](Cc2ccccc2)NC(=O)[C@H]2CCCN2C1=O [JVA-2803, cyclo[Trp-Ala-D-Pro-Phe]] (HELM PEPTIDE1{A.[dP].F.W}$PEPTIDE1,PEPTIDE1,1:R1-4:R2$$$V2.0)	–	–	–	less than a day	more potent than JVA-2801	8.03 ± 1.67	can function as agonists; also recorded: more potent than JVA-2801	8680 ± 1270	122	32.1 ± 3.9	antagonism of the KOR selective agonist U50,488 (KOR; listed as 2803): exhibits KOR antagonist activity; fold higher KOR affinity than the parent peptide (κ opioid receptors (KOR); relative to parent (Phe) peptide / CJ-15,208): 4 fold; pattern of opioid activity in vivo (C57B1/6J mice [1]): exhibit both agonist activity and KOR antagonist activity; fold higher MOR affinity than JVA-2801 (μ opioid receptors (MOR); relative to JVA-2801): 19 fold
O=C1N[C@@H](Cc2ccccc2)C(=O)N2CCC[C@@H]2C(=O)N[C@@H](Cc2ccccc2)C(=O)N[C@H]1Cc1c[nH]c2ccccc12 [JVA-2801, cyclo[Trp-Phe-D-Pro-Phe]] (HELM PEPTIDE1{F.W.F.[dP]}$PEPTIDE1,PEPTIDE1,1:R1-4:R2$$$V2.0)	–	–	–	–	dose-dependent antagonism	35.4 ± 3.6	can function as agonists; also recorded: robust agonist activity	4150 ± 3020	119	619 ± 87	Ki (KOR in mouse brain): ~21 nM; reversal of agonist activity by the KOR selective antagonist nor-BNI (C57B1/6J mice [1]; i.c.v. peptide): partially reversed; reversal of agonist activity by the MOR selective antagonist β-FNA (C57B1/6J mice [1]; i.c.v. peptide): completely reversed
O=C1N[C@H](Cc2c[nH]c3ccccc23)C(=O)N[C@@H](Cc2ccccc2)C(=O)N2CCC[C@@H]2C(=O)N[C@H]1Cc1ccccc1 [JVA-2802, cyclo[D-Trp-Phe-D-Pro-Phe]] (HELM PEPTIDE1{F.[dP].F.[dW]}$PEPTIDE1,PEPTIDE1,1:R1-4:R2$$$V2.0)	–	–	–	less than a day	dose-dependent antagonism	30.6 ± 3.4	did not show any agonist activity; also recorded: did not exhibit any agonist activity	2910 ± 1350	127	259 ± 29	stress-induced reinstatement of cocaine conditioned place preference (C57B1/6J mice [2]): blocks stress-induced reinstatement; antagonism of the DOR selective agonist SNC-80 (DOR): does not antagonize; antagonism of the MOR selective agonist morphine (MOR): does not antagonize
C[C@H]1NC(=O)[C@H](Cc2ccccc2)NC(=O)[C@H]2CCCN2C(=O)[C@H](Cc2ccccc2)NC1=O [JVA 3002]	1250	11000	774	–	–	–	–	–	–	–	–
CC(C)[C@@H](CN1CC[C@@](C)(c2cccc(O)c2)[C@@H](C)C1)NC(=O)[C@H]1Cc2ccc(O)cc2CN1 [JDTic]	–	–	–	–	–	–	–	–	–	–	stress-induced reinstatement of cocaine-seeking behavior [3]: block stress-induced reinstatement
C[C@@H]1NC(=O)[C@@H](Cc2c[nH]c3ccccc23)NC(=O)[C@H](Cc2ccccc2)NC(=O)[C@H]2CCCN2C1=O [JVA-3003, cyclo[D-Trp-Ala-D-Pro-Phe]] (HELM PEPTIDE1{A.[dP].F.[dW]}$PEPTIDE1,PEPTIDE1,1:R1-4:R2$$$V2.0)	2.81	833	27.3	less than a day	exhibits KOR antagonist activity	3.15 ± 0.41	can function as an agonist; also recorded: robust agonist activity	8330 ± 1220	75	–	pattern of opioid activity in vivo (C57B1/6J mice [1]): exhibits a pattern similar to the L-Trp peptides
